Test system: K98450-129-R-PDC multicell spheroids, viability
Experiment: Anticancer human tumor K98450-129-R-PDC patient-derived colon adenocarcinoma cell line growth inhibition [PI3K]
Conditions: for IC50: curve of first compound; for viability, T/C: stronger effect = lower value
Outline: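 Targeted small molecules plus PI3K inhibitors, half-log dose series from Cmax (default top 10 microM), were applied to heterotypic spheroids of cancer cells with HUVEC and MSCs. Viability indicated growth inhibition.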
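Note: spheroids exposed to agents for seven days before read-out.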

Work on `CNC(=O)c1ccc(N2C(=S)N(c3ccc(C#N)c(C(F)(F)F)c3)C(=O)C2(C)C)cc1F` + Cc1nc(NC(=O)N2CCCC2C(N)=O)sc1-c1ccnc(C(C)(C)C(F)(F)F)c1 yielded an IC50 (second compound 0.0316 µM) of over 10 µM, an IC50 (second compound 0.1 µM) of over 10 µM and an IC50 (second compound 0.316 µM) of over 10 µM. The IC50 (second compound 1 µM) was over 10 µM, the IC50 (second compound 3.16 µM) was over 10 µM and the IC50 (second compound 10 µM) was over 10 µM. The viability, T/C (second compound 0.0316 µM, first compound 0.0316 µM) was 108%, the viability, T/C (second compound 0.0316 µM, first compound 0.1 µM) was 93% and the viability, T/C (second compound 0.0316 µM, first compound 0.316 µM) was 106%. The viability, T/C (second compound 0.0316 µM, first compound 1 µM) was 94.2%, the viability, T/C (second compound 0.0316 µM, first compound 3.16 µM) was 109% and the viability, T/C (second compound 0.0316 µM, first compound 10 µM) was 111%. The viability, T/C (second compound 0.1 µM, first compound 0.0316 µM) was 111%, the viability, T/C (second compound 0.1 µM, first compound 0.1 µM) was 92.2% and the viability, T/C (second compound 0.1 µM, first compound 0.316 µM) was 102%. For the same compound, the viability, T/C (second compound 0.1 µM, first compound 1 µM) was 89.2%, the viability, T/C (second compound 0.1 µM, first compound 3.16 µM) was 104% and the viability, T/C (second compound 0.1 µM, first compound 10 µM) was 109%. It also gave a viability, T/C (second compound 0.316 µM, first compound 0.0316 µM) of 97%, a viability, T/C (second compound 0.316 µM, first compound 0.1 µM) of 96.2% and a viability, T/C (second compound 0.316 µM, first compound 0.316 µM) of 94.8%. For the same compound, the viability, T/C (second compound 0.316 µM, first compound 1 µM) was 97.3%, the viability, T/C (second compound 0.316 µM, first compound 3.16 µM) was 105% and the viability, T/C (second compound 0.316 µM, first compound 10 µM) was 109%. It also gave a viability, T/C (second compound 1 µM, first compound 0.0316 µM) of 90.5%, a viability, T/C (second compound 1 µM, first compound 0.1 µM) of 91.2% and a viability, T/C (second compound 1 µM, first compound 0.316 µM) of 87.5%. The viability, T/C (second compound 1 µM, first compound 1 µM) was 91.4%, the viability, T/C (second compound 1 µM, first compound 3.16 µM) was 101% and the viability, T/C (second compound 1 µM, first compound 10 µM) was 99%. It also gave a viability, T/C (second compound 3.16 µM, first compound 0.0316 µM) of 81.1%, a viability, T/C (second compound 3.16 µM, first compound 0.1 µM) of 88.2% and a viability, T/C (second compound 3.16 µM, first compound 0.316 µM) of 87.1%. The viability, T/C (second compound 3.16 µM, first compound 1 µM) was 81.8%, the viability, T/C (second compound 3.16 µM, first compound 3.16 µM) was 92% and the viability, T/C (second compound 3.16 µM, first compound 10 µM) was 83.7%. It also gave a viability, T/C (second compound 10 µM, first compound 0.0316 µM) of 70.2%, a viability, T/C (second compound 10 µM, first compound 0.1 µM) of 69.2% and a viability, T/C (second compound 10 µM, first compound 0.316 µM) of 74.7%. The viability, T/C (second compound 10 µM, first compound 1 µM) was 71.1%, the viability, T/C (second compound 10 µM, first compound 3.16 µM) was 79% and the viability, T/C (second compound 10 µM, first compound 10 µM) was 73.5%.
`Cn1cnc2c(F)c(Nc3ccc(Br)cc3Cl)c(C(=O)NOCCO)cc21` + Cc1nc(NC(=O)N2CCCC2C(N)=O)sc1-c1ccnc(C(C)(C)C(F)(F)F)c1 gave an IC50 (second compound 0.0316 µM) of 1.26 µM, an IC50 (second compound 0.1 µM) of 1.03 µM and an IC50 (second compound 0.316 µM) of 0.998 µM. The IC50 (second compound 1 µM) was 0.694 µM, the IC50 (second compound 3.16 µM) was 0.434 µM and the IC50 (second compound 10 µM) was 0.165 µM. It also gave a viability, T/C (second compound 0.0316 µM, first compound 0.00949 µM) of 95.2%, a viability, T/C (second compound 0.0316 µM, first compound 0.03 µM) of 87.1% and a viability, T/C (second compound 0.0316 µM, first compound 0.0949 µM) of 91.9%. It also gave a viability, T/C (second compound 0.0316 µM, first compound 0.3 µM) of 78.3%, a viability, T/C (second compound 0.0316 µM, first compound 0.949 µM) of 61.2% and a viability, T/C (second compound 0.0316 µM, first compound 3 µM) of 17.2%. It also gave a viability, T/C (second compound 0.1 µM, first compound 0.00949 µM) of 107%, a viability, T/C (second compound 0.1 µM, first compound 0.03 µM) of 89.1% and a viability, T/C (second compound 0.1 µM, first compound 0.0949 µM) of 84.7%. For the same compound, the viability, T/C (second compound 0.1 µM, first compound 0.3 µM) was 77%, the viability, T/C (second compound 0.1 µM, first compound 0.949 µM) was 54.3% and the viability, T/C (second compound 0.1 µM, first compound 3 µM) was 15.6%. The viability, T/C (second compound 0.316 µM, first compound 0.00949 µM) was 89%, the viability, T/C (second compound 0.316 µM, first compound 0.03 µM) was 89.2% and the viability, T/C (second compound 0.316 µM, first compound 0.0949 µM) was 79.1%. The viability, T/C (second compound 0.316 µM, first compound 0.3 µM) was 71.2%, the viability, T/C (second compound 0.316 µM, first compound 0.949 µM) was 53.5% and the viability, T/C (second compound 0.316 µM, first compound 3 µM) was 11.2%. It also gave a viability, T/C (second compound 1 µM, first compound 0.00949 µM) of 85.3%, a viability, T/C (second compound 1 µM, first compound 0.03 µM) of 82.4% and a viability, T/C (second compound 1 µM, first compound 0.0949 µM) of 78.9%. For the same compound, the viability, T/C (second compound 1 µM, first compound 0.3 µM) was 67.2%, the viability, T/C (second compound 1 µM, first compound 0.949 µM) was 43.5% and the viability, T/C (second compound 1 µM, first compound 3 µM) was 8.14%. It also gave a viability, T/C (second compound 3.16 µM, first compound 0.00949 µM) of 76.8%, a viability, T/C (second compound 3.16 µM, first compound 0.03 µM) of 74.1% and a viability, T/C (second compound 3.16 µM, first compound 0.0949 µM) of 71.3%. It also gave a viability, T/C (second compound 3.16 µM, first compound 0.3 µM) of 58.5%, a viability, T/C (second compound 3.16 µM, first compound 0.949 µM) of 32.1% and a viability, T/C (second compound 3.16 µM, first compound 3 µM) of 4.89%. For the same compound, the viability, T/C (second compound 10 µM, first compound 0.00949 µM) was 63.1%, the viability, T/C (second compound 10 µM, first compound 0.03 µM) was 61.1% and the viability, T/C (second compound 10 µM, first compound 0.0949 µM) was 60.3%. The viability, T/C (second compound 10 µM, first compound 0.3 µM) was 39.4%, the viability, T/C (second compound 10 µM, first compound 0.949 µM) was 10.3% and the viability, T/C (second compound 10 µM, first compound 3 µM) was 2.85%.

— PubChem BioAssay AID1963961 (Molecular Pharmacology Branch, DTP, NCI, 2024)
